Patent US20220380937A1, “IDENTIFICATION OF SPLICING-DERIVED ANTIGENS FOR TREATING CANCER” (THE REGENTS OF THE UNIVERSITY OF CALIFORNIA, priority 2019, published 2022)

Tested on: CD3+CD8+ T cells
Assay: MHC class I dextramer-based T-cell recognition assay (flow cytometry of PBMCs/TILs with pMHC complexes)
Set-up: species or system human
Details: for tested healthy donors whose T cells recognized the epitope: three HLA-matched healthy donors tested, PBMCs
Description: Assays to determine immunogenicity and/or TCR binding can be performed. One such as is the dextramer flow cytometery assay. Generally, custom-made HLA-matched MHC Class I dextramer:peptide (pMHC) complexes are developed or purchased (Immudex, Copenhagen, Denmark). T cells from peripheral blood mononuclear cells (PBMCs) or tumor-infiltrating lymphocytes (TILs) are incubated the pMHC complexes and stained, which are then run through a flow cytometer to determine if the peptide is capable of binding a TCR of a T cell.
Finally, the inventors sought to validate the immunogenicity and T-cell recognition of IRIS-identified candidate TCR targets using an MHC class I dextramer-based assay (12,24). The inventors focused on predicted AS-derived tumor epitopes with strong putative HLA-binding affinity to common HLA types found in at least five of the 22 patients. The inventors selected seven AS-derived tumor-associated epitopes (five HLA-A02:01 and two HLA-A03:01) for dextramer-based T-cell recognition testing (Table 4). […] The inventors obtained customized HLA-matched, fluorescently labeled MEW class I dextramer:peptide (pMHC) complexes for each candidate epitope. The inventors conducted flow cytometry to detect CD8^+ T-cell binding with the pMHC complexes using available peripheral blood mononuclear cells (PBMCs) and/or ex vivo-expanded tumor-infiltrating lymphocytes (TILs). Based on the binding of each AS-derived tumor epitope to a patient's CD3^+CD8^+ T cells, the inventors classified epitope reactivity as ‘positive’ (binding>0.1% of cells), ‘marginal’ (binding 0.01-0.1% of cells), or ‘negative’ (binding<0.01% of cells). […] The inventors analyzed samples from two HLA-A02:01 and four HLA-A03:01 patients, as well as samples from three HLA-A02:01 and three HLA-A03:01 healthy donors (Table 5, Supplementary Data).
Dextramer flow-cytometric analysis of PBMCs and TILs. For each AS-derived peptide selected for validation, custom-made HLA-matched MHC Class I dextramer:peptide (pMHC) complexes were purchased from Immudex (Copenhagen, Denmark). Immudex also provided pMHC complexes for common cytomegalovirus (CMV) epitopes (cat. nos. WB2132 and WC2197) and for a nonhuman epitope (NI3233) as a negative control. Each pMHC complex was purchased with two separate tags for APC or PE fluorescence labeling, to increase specificity to targeted T cells with dual labeling.
To facilitate proper gating of CD8^+ T cells from PBMC and TIL populations, the following panel of antibodies (from BioLegend) was set up: CD3 BV605 (cat. no. 300460), CD8 FITC (cat. no. 344704), CD4 BV421 (cat. no. 317434), CD19 BV421 (cat. no. 302234), CD56 BV421 (cat. no. 362552), and CD14 BV421 (cat. no. 301828). For single-color compensation controls, OneComp eBeads were used (Thermo Fisher Scientific, cat. no. 01-1111-41).
For each set of pMHC complexes, at least 3×10^6 cells were stained according to manufacturer's guidelines. Briefly, cells were thawed in a 37° C. water bath and washed with RPMI and D-PBS (Fisher Scientific, cat. no. MT21031CV) before staining for cell viability with the Zombie Violet Viability Kit (BioLegend, cat. no. 423113). Next, the appropriate amount of each pMHC complex in a staining buffer of D-PBS with 5% fetal bovine serum (Fisher Scientific, cat. no. MT35016CV) was added to each sample. After 10 min, the aforementioned antibody cocktail was added. After a 30-min incubation period, cells were washed twice in the same staining buffer. All samples were tested in a BD LSRII flow cytometer, and data were analyzed with FlowJo (Treestar). For gating, the lymphocyte population was first selected using forward and side scatter, and then the BV421-negative population was gated out (i.e. excluding dead cells and the CD14, CD19, CD56, and CD4 populations) before selecting the CD3^+CD8^+population. […]

[1] = patient LB2867, ex vivo-expanded TILs

| Sequence | reactive cells, % of CD3+CD8+ T cells (the one recognizing healthy donor of three tested) [%] | tested healthy donors whose T cells recognized the epitope | recognition by patient T cells (GBM patients, PBMCs and/or ex vivo-expanded TILs) | tested patients whose T cells recognized the epitope (four HLA-A03:01 GBM patients tested, PBMCs and/or TILs, at least marginal reactivity = recognized) | epitope-reactive T cells, % of T cells in PBMCs (patient LB2867, PBMCs) [%] | epitope reactivity (recognition) in expanded TIL population [1] | epitope-reactive T cells, % of T cells in TILs [1] [%] |
| --- | --- | --- | --- | --- | --- | --- | --- |
| YAIVWVNGV (listed as Homo sapiens) | 0.013 | only one healthy donor |  |  |  |  |  |
| KIGRLVTRK (listed as Homo sapiens) |  | one of the three | recognized | all four tested patients | 0.03 | positive (‘positive’ (binding>0.1% of cells)) | 1.69 |
